# Source: US8263079B2, “Antibodies against CSF-1R” (ImClone, LLC, priority 2010, dated 2012)
# B1: CSF-1: Colony Stimulating Factor-1, CSF-1R ligand, positive control for receptor degradation (protein, listed as Homo sapiens)
# chain: MTAPGAAGRCPPTTWLGSLLLLVCLLASRSITEEVSEYCSHMIGSGHLQSLQRLIDSQMETSCQITFEFVDQEQLKDPVCYLKKAFLLVQDIMEDTMRFRDNTPNAIAIVQLQELSLRLKSCFTKDYEEHDKACVRTFYETPLQLLEKVKNVFNETKNLLDKDWNIFSKNCNNSFAECSSQDVVTKPDCNCLYPKAIPSSDPASVSPHQPLAPSMAPVAGLTWEDSEGTEGSSLLPGEQPLHTVDPGSAKQRPPRSTCQSFEPPETPVVKDSTIGGSPQPRPSVGAFNPGMEDILDSAMGTNWVPEEASGEASEIPVPQGTELSPSRPGGGSMQTEPARPSNFLSASSPLPASAKGQQPADVTGTALPRVGPVRPTGQDWNHTPQKTDHPSALLRDPPEPGSPRISSLRPQGLSNPSTLSAQPQLSRSHSSGSVLPLGELEGRRSTRDRRSPAEPEGGPASEGAARPLPRFNSVPLTDTGHERQSEGSFSPQLQESVFHLLVPSVILVLLAVGGLLFYRWRRRSHQEPQRADSPLEQPEGSPLTQDDRQVELPV
# Tests used:
# DU145 prostate cells = experiment: Prostate tumor combination study, DU145 xenograft; format: in vivo, mouse; details: 12 mg/kg IP Q7Dx3, vs saline control, P 0.15
# Description: Inject Nu/nu mice (male, 7-8 weeks of age) subcutaneously with 1.5×10^7 DU145 prostate cells/mouse and allow tumors to reach 300 mm^3 before treatment. Randomize mice into groups of 10 and treat as follows:
# Measure tumor volumes and calculate the T/C % for each treatment as the ratio of the relative tumor volumes versus the control group. Analyze tumor volumes using RM ANOVA.
# HCC-1954 breast cells = experiment: Breast tumor combination studies, HCC-1954 xenograft; format: in vivo, mouse
# Description: Inject Nu/nu mice (female, 7-8 weeks of age) subcutaneously with 1×10^7 HCC-1954 breast cells/mouse and allow tumors to reach 300 mm^3 before treatment. Randomize mice into groups of 12 and treat as follows:
# Measure tumor volumes and calculate the T/C % for each treatment group as the ratio of the relative tumor volumes versus the control group. Analyze tumor volumes using RM ANOVA.
# CSF-1R = molecular target: T1, CSF-1R (Homo sapiens, UniProt P07333); experiment: Degradation of CSF-1R in NIH-3T3-CSF-1R cells (Western blot, normalized to actin); format: cell-based
# T1 construct: expressed in transfected cells
# Protocol: Seed NIH-3T3-CSF-1R cells at 5×10^5 cells/well in a 12 well plate in 1 mL DMEM media containing 10% FBS and 1 mg/mL geniticin. […] CSF-1 is known to induce internalization and degradation of CSF-1R, thereby acting as a positive control for the experiment. Allow CSF-1 to remain on cells for 1 and 5 hours before collecting cells. […] Aspirate medium, lyse cells and run clarified lysates on gels (as described above). Probe transferred proteins with anti-CSF-1R antibodies to determine the amount of receptor for each condition. Probe the same blots with anti-actin antibodies to normalize protein levels. Quantify CSF-1R and actin levels using the Multi-Gauge program to measure band density on the Western blot. The relative total CSF-1R protein level is represented by the total CSF-1R band density divided by the corresponding actin band density.
molecule,measurement,setting,value
CC(=O)O[C@@]12CO[C@@H]1C[C@H](O)[C@@]1(C)C(=O)[C@H](O)C3=C(C)[C@@H](OC(=O)[C@H](O)[C@@H](NC(=O)OC(C)(C)C)c4ccccc4)C[C@@](O)([C@@H](OC(=O)c4ccccc4)[C@H]21)C3(C)C [Docetaxel],% T/C,DU145 prostate cells,59%
COc1cccc2c1C(=O)c1c(O)c3c(c(O)c1C2=O)C[C@@](O)(C(=O)CO)C[C@@H]3O[C@H]1C[C@H](N)[C@H](O)[C@H](C)O1 [Doxorubicin],% T/C,"HCC-1954 breast cells; 8 mg/kg IP Q7Dx2, vs saline control, P 0.008",50%
CC(=O)O[C@H]1C(=O)[C@@]2(C)[C@H]([C@H](OC(=O)c3ccccc3)[C@]3(O)C[C@H](OC(=O)[C@H](O)[C@@H](NC(=O)c4ccccc4)c4ccccc4)C(C)=C1C3(C)C)[C@]1(OC(C)=O)CO[C@@H]1C[C@@H]2O [Paclitaxel],% T/C,"HCC-1954 breast cells; 10 mg/kg IP Q7Dx3, vs saline control, P<0.01",60%
B1,CSF-1R levels (degradation),"CSF-1R; 100 ng/mL CSF-1, by 5 hours, positive control",halved
same,time to degradation of CSF-1R,"CSF-1R; 100 ng/mL CSF-1, positive control",≤ 1 h
